Consider 8 compounds from ChEMBL document CHEMBL1201862, “PubChem BioAssay data set” (2004).

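These data come from cells grown in 96-well plates and exposed to compound for 48 hours at five concentrations. Here, GI50 denotes the concentration required for 50% inhibition of growth.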 The source made the active and inactive calls. Cut-off read from the data, not from the text of the source: active = GI50 up to about 1.1 µM and inactive = higher.

Among the test systems are HCT-116; HT-29; MOLT-4; IGROV-1; SW-620; DU-145; CAKI-1; A549; UACC-257; SF-268; KM12; T47D; HCT-15; OVCAR-4; NCI-H226; COLO 205; MDA-MB-231; K562; MCF7; SR.
Holding throughout (assay): NCI-60 cell line screen, 48 h

With `Cc1cc2c(cc1Cl)SC(NNC(=O)c1ccncc1)=NS2(=O)=O`, the GI50 in the test on HCT-116, in the test with HT-29, in the test with MOLT-4, with IGROV-1, in the test with SW-620 and in the test on DU-145 was > 10 µM (inactive) throughout. For the same compound, the GI50 in the test on CAKI-1, with A549, in the test with UACC-257, in the test on SF-268, in the test on KM12 and in the test with T47D was > 10 µM (inactive) each time. The GI50 is above 10 µM with HCT-15; > 10 µM (inactive) in the test with OVCAR-4; > 10 µM (inactive) with NCI-H226; > 10 µM (inactive) with COLO 205; > 10 µM (inactive) with MDA-MB-231; > 10 µM (inactive) in the test on K562.

`COc1cc(/C=C2\C[C@H]3[C@@H]4CC=C5C[C@@H](N6CCCC6)CC[C@]5(C)[C@H]4CC[C@]3(C)[C@H]2OC(C)=O)cc(OC)c1OC`: the GI50 in the test on HCT-116 is 15.5 µM (inactive); with HT-29, 10 µM (inactive); in the test on MOLT-4, 6.38 µM (inactive); in the test on IGROV-1, 16.3 µM (inactive); in the test on SW-620, 14.8 µM (inactive); in the test with DU-145, 17.3 µM (inactive). For the same compound, the GI50 in the test with MCF7 is 15.9 µM (inactive); with CAKI-1 it was 17 µM (inactive); with A549, 15.3 µM (inactive); in the test with UACC-257, 19.6 µM (inactive); in the test on SF-268, 14.6 µM (inactive); in the test on KM12 it was 15.1 µM (inactive). Also, the GI50 with T47D is 20.3 µM (inactive); with HCT-15, 12.6 µM; with OVCAR-4 it was 18.2 µM (inactive); with NCI-H226, 24.8 µM (inactive); with COLO 205, 12.9 µM (inactive); in the test on MDA-MB-231 it was 16.3 µM (inactive).

Consider `O=C(c1cccnc1)N1N=C(c2ccccc2)CC1(O)c1cc(F)c(Cl)cc1Cl` (configuration not stated), for which the GI50 was 13.8 µM (inactive) with HCT-116; 19.6 µM (inactive) in the test with HT-29; 14.5 µM (inactive) with MOLT-4; 10.4 µM (inactive) in the test on IGROV-1; 28.3 µM (inactive) in the test on SW-620; 32.1 µM (inactive) with DU-145. In addition, the GI50 with CAKI-1 is 33.3 µM (inactive); with A549, 27.6 µM (inactive); in the test with UACC-257 it was 18.6 µM (inactive); in the test with SF-268 it was 30.5 µM (inactive); in the test on KM12, 25.6 µM (inactive); in the test with T47D it was 12.3 µM (inactive). Further, the GI50 with SR was 22.5 µM (inactive); in the test with HCT-15 it was 26.2 µM; in the test with OVCAR-4 it was 27 µM (inactive); in the test on NCI-H226, 15.6 µM (inactive); with COLO 205, 14.1 µM (inactive); in the test on MDA-MB-231, 15.7 µM (inactive). Besides, the GI50 in the test on K562 was 21.4 µM (inactive).

In the case of `CCCCC(=O)Nc1ccc2c(C)cc(-c3ccc(-c4cc(-c5ccc(C)cc5)cc(-c5ccc(-c6cc(C)c7ccc(NC(=O)CCCC)nc7n6)cc5)n4)cc3)nc2n1`, the GI50 in the test on HCT-116, with MOLT-4, in the test with DU-145, in the test with MCF7, with CAKI-1 and with A549 was > 100 µM (inactive) each time. Besides, the GI50 is > 100 µM (inactive) with UACC-257; > 100 µM (inactive) in the test on SF-268; > 100 µM (inactive) in the test on KM12; > 100 µM (inactive) in the test with T47D; above 100 µM in the test on HCT-15; > 100 µM (inactive) with OVCAR-4. In addition, the GI50 in the test on COLO 205, in the test with MDA-MB-231 and with K562 was > 100 µM (inactive) each time.

Regarding `N#CC(C#N)=c1c(=O)c2c3ccccc3cc3cccc1c32`, the GI50 in the test on HCT-116 was 72.6 µM (inactive); in the test with HT-29, > 100 µM (inactive); in the test on MOLT-4, 70.3 µM (inactive); in the test on IGROV-1, 40.6 µM (inactive); in the test on SW-620, > 100 µM (inactive); in the test with DU-145, > 100 µM (inactive). For the same compound, the GI50 in the test on CAKI-1 is > 100 µM (inactive); with A549 it was > 100 µM (inactive); in the test on UACC-257, > 100 µM (inactive); in the test on SF-268 it was > 100 µM (inactive); with KM12, 58.7 µM (inactive); with T47D it was > 100 µM (inactive). In addition, the GI50 in the test with HCT-15 was above 100 µM; in the test with OVCAR-4, > 100 µM (inactive); in the test with NCI-H226, > 100 µM (inactive); in the test on COLO 205 it was > 100 µM (inactive); with MDA-MB-231 it was > 100 µM (inactive).

With `C[C@@H](CC(O)C(O)C(C)(C)O)C1CCC23CC12CCC1[C@@]2(C)CCC(=O)C(C)(C)C2CC(OC2OC(CO)C(O)C(O)C2O)[C@]13C` (some centres not stated), the GI50 with HCT-116, in the test with HT-29, in the test on MOLT-4, in the test on IGROV-1, in the test on SW-620 and in the test with DU-145 was > 10 µM (inactive) each time. For the same compound, the GI50 in the test with MCF7, in the test on CAKI-1, with A549, in the test on SF-268, with KM12 and with T47D was > 10 µM (inactive) in each case. The GI50 was above 10 µM with HCT-15; > 10 µM (inactive) in the test on OVCAR-4; > 10 µM (inactive) in the test with NCI-H226; > 10 µM (inactive) in the test with COLO 205; > 10 µM (inactive) in the test with MDA-MB-231; > 10 µM (inactive) with K562.

Regarding `CN(CCCNC(=O)c1cn(C)c2c1ccc1cc(Cl)ccc12)CCCNC(=O)c1cn(C)c2c1ccc1cc(Cl)ccc12`, the GI50 was 1.88 µM (inactive) in the test on HCT-116; 2.05 µM (inactive) in the test on HT-29; 1.73 µM (inactive) with MOLT-4; 1.46 µM (inactive) in the test with IGROV-1; 1.62 µM (inactive) in the test on SW-620; 1.89 µM (inactive) in the test with DU-145. The GI50 in the test on CAKI-1 was 2.3 µM (inactive); with A549 it was 2.06 µM (inactive); with UACC-257, 2.19 µM (inactive); in the test with SF-268 it was 1.72 µM (inactive); in the test with KM12, 1.72 µM (inactive); with T47D, 1.8 µM (inactive). Also, the GI50 is 2.54 µM (inactive) in the test with SR; 1.78 µM in the test with HCT-15; 2.52 µM (inactive) in the test with OVCAR-4; 20.6 µM (inactive) in the test with NCI-H226; 1.47 µM (inactive) with COLO 205; 1.75 µM (inactive) in the test on MDA-MB-231. Also, the GI50 in the test with K562 was 1.97 µM (inactive).

On to `C1=C(c2ccccc2)NC2=N[C@H]3CCCC[C@@H]3N2C1c1ccccc1` (some centres not stated), for which the GI50 in the test with HCT-116 is 7.67 µM (inactive); in the test on HT-29, 3.51 µM (inactive); in the test with MOLT-4, 7.74 µM (inactive); in the test on IGROV-1 it was 13 µM (inactive); in the test on SW-620 it was 13.2 µM (inactive); in the test with DU-145, 16.1 µM (inactive). Also, the GI50 with CAKI-1 was 16.1 µM (inactive); with UACC-257, 14.6 µM (inactive); in the test on SF-268 it was 21.5 µM (inactive); in the test on KM12, 10.1 µM (inactive); in the test on T47D it was 16.4 µM (inactive); in the test on SR it was 14.2 µM (inactive). The GI50 in the test on HCT-15 is 11.4 µM; with OVCAR-4, 10.1 µM (inactive); in the test with NCI-H226, 13.4 µM (inactive); in the test on COLO 205 it was 11 µM (inactive); in the test on MDA-MB-231 it was 15.8 µM (inactive); with K562, 5.15 µM (inactive).
